# Test results reported in patent US11230538B2, “Herbicides” (SYNGENTA PARTICIPATIONS AG, priority 2016, dated 2022).
# How the values were obtained:
# Type in all cases: in vivo
# Avena fatua (AVEFA) [1] = experiment: B1 Pre-emergence herbicidal activity; parameters: key: 5=total damage to plant; 0=no damage to plant; settings: pre-emergence application, rate 1000 g/ha, evaluated after 13 days
# Summary of the method: (§1)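 Damage was rated visually on a 0–5 scale (0 no damage, 5 total damage) 13 days after treatment. Soil-sown seeds had been sprayed one day after sowing with an aqueous acetone/water (50:50) solution containing 0.5% Tween 20, then kept in a glasshouse at 24/16 °C, 14 h light, 65% humidity.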
# [2] = system: Alopecurus myosuroides (ALOMY); experiment: B1 Pre-emergence herbicidal activity; parameters: key: 5=total damage to plant; 0=no damage to plant; settings: pre-emergence application, rate 1000 g/ha, evaluated after 13 days
# Summary of the method: as §1
# [3] = system: Triticum aestivium (TRZAW); experiment: B1 Pre-emergence herbicidal activity; parameters: key: 5=total damage to plant; 0=no damage to plant; settings: pre-emergence application, rate 1000 g/ha, evaluated after 13 days
# Summary of the method: as §1
# Avena fatua (AVEFA) [4] = experiment: B2 Post-emergence herbicidal activity; settings: post-emergence application, rate 1000 g/ha, evaluated after 13 days
# Description: (§2) Seeds of a variety of test species were sown in standard soil in pots: Triticum aestivium (TRZAW), Avena fatua (AVEFA), Alopecurus myosuroides (ALOMY), Echinochloa crus-galli (ECHCG), Lolium perenne (LOLPE), Zea Mays (ZEAMX), Abutilon theophrasti (ABUTH), Amaranthus retroflexus (AMARE) and Setaria fabenri (SETFA). After 8 days cultivation (post-emergence) under controlled conditions in a glasshouse (at 24/16° C., day/night; 14 hours light; 65% humidity), the plants were sprayed with an aqueous spray solution derived from the formulation of the technical active ingredient in acetone I water (50:50) solution containing 0.5% Tween 20 (polyoxyethelyene sorbitan monolaurate, CAS RN 9005-64-5). The test plants were then grown in a glasshouse under controlled conditions (at 24/16° C., day/night; 14 hours light; 65% humidity) and watered twice daily. After 13 days, the test was evaluated (5=total damage to plant; 0=no damage to plant).
# Lolium perenne (LOLPE) [5] = experiment: B1 Pre-emergence herbicidal activity; settings: pre-emergence application, rate 1000 g/ha, evaluated after 13 days
# Summary of the method: as §1
# Lolium perenne (LOLPE) [6] = experiment: B2 Post-emergence herbicidal activity; settings: post-emergence application, rate 1000 g/ha, evaluated after 13 days
# Description: as §2
# [7] = system: Echinochloa crus-galli (ECHCG); experiment: B2 Post-emergence herbicidal activity; parameters: key to Post-emergence herbicidal activity, ECHCG (damage score 0-5): 5=total damage to plant; 0=no damage to plant; settings: post-emergence application, rate 1000 g/ha, evaluated after 13 days
# Summary of the method: (§3)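 Visual damage score (0 = none, 5 = total) taken 13 days after treatment. Seedlings had been cultivated 8 days in pots of standard soil before being sprayed with an aqueous solution of compound in acetone/water (50:50) containing 0.5% Tween 20.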
# [8] = system: Alopecurus myosuroides (ALOMY); experiment: B2 Post-emergence herbicidal activity; parameters: key: 5=total damage to plant; 0=no damage to plant; settings: post-emergence application, rate 1000 g/ha, evaluated after 13 days
# Summary of the method: as §3
# [9] = system: Triticum aestivium (TRZAW); experiment: B2 Post-emergence herbicidal activity; parameters: key: 5=total damage to plant; 0=no damage to plant; settings: post-emergence application, rate 1000 g/ha, evaluated after 13 days
# Summary of the method: as §3
# Setaria fabenri (SETFA) = experiment: B2 Post-emergence herbicidal activity; parameters: key: 5=total damage to plant; 0=no damage to plant; settings: post-emergence application, rate 1000 g/ha, evaluated after 13 days
# Summary of the method: as §3
# Setaria fabenr (SETFA) = experiment: B1 Pre-emergence herbicidal activity; parameters: key to Pre-emergence herbicidal activity, SETFA (damage score 0-5): 5=total damage to plant; 0=no damage to plant; settings: pre-emergence application, rate 1000 g/ha, evaluated after 13 days
# Summary of the method: as §1
# [10] = system: Echinochloa crus-galli (ECHCG); experiment: B1 Pre-emergence herbicidal activity; parameters: key to Pre-emergence herbicidal activity, ECHCG (damage score 0-5): 5=total damage to plant; 0=no damage to plant; settings: pre-emergence application, rate 1000 g/ha, evaluated after 13 days
# Summary of the method: as §1
SMILES,"Pre-emergence herbicidal activity, AVEFA (damage score 0-5) (Avena fatua (AVEFA) [1])","Pre-emergence herbicidal activity, ALOMY (damage score 0-5) [2]","Pre-emergence herbicidal activity, TRAZW (damage score 0-5) [3]","Post-emergence herbicidal activity, AVEFA (damage score 0-5) (Avena fatua (AVEFA) [4])","Pre-emergence herbicidal activity, LOLPE (damage score 0-5) (Lolium perenne (LOLPE) [5])","Post-emergence herbicidal activity, LOLPE (damage score 0-5) (Lolium perenne (LOLPE) [6])","Post-emergence herbicidal activity, ECHCG (damage score 0-5) [7]","Post-emergence herbicidal activity, ALOMY (damage score 0-5) [8]","Post-emergence herbicidal activity, TRAZW (damage score 0-5) [9]","Post-emergence herbicidal activity, SETFA (damage score 0-5) (Setaria fabenri (SETFA))","Pre-emergence herbicidal activity, SETFA (damage score 0-5) (Setaria fabenr (SETFA))","Pre-emergence herbicidal activity, ECHCG (damage score 0-5) [10]"
O=C(Nc1ccc(-c2cncc(F)c2)nc1C(F)(F)F)C(Cl)Cl [Compound C26],2,0,0,4,1,4,5,0,1,5,5,5
Cc1ccc(C(=O)Nc2ccc(-c3cncc(F)c3)nc2C(F)(F)F)s1 [Compound C52],1,1,0,4,1,2,4,0,0,5,5,4
COCC(=O)Nc1ccc(-c2cncc(F)c2)nc1C(F)(F)F [Compound C27],3,0,0,4,1,3,5,1,1,5,5,5
CCC(=O)N(CCC(F)F)c1ccc(-c2cncc(F)c2)nc1C(F)(F)F [Compound C62],2,0,0,4,1,2,5,1,1,5,4,3
CC(=O)Nc1ccc(-c2cncnc2)nc1C(F)(F)F [Compound C7],3,0,0,4,1,3,4,1,1,5,4,4
